{"source": "paper PMC10454243", "about": "“Anticancer Study of a Novel Pan-HDAC Inhibitor MPT0G236 in Colorectal Cancer Cells” (International Journal of Molecular Sciences, 2023)", "key": {"HDAC9": {"target": "T1, HDAC9 (Homo sapiens, UniProt Q9UKV0)", "T1 construct": "purchased Reaction Biology Corp. (contract assay service)", "T1 sequence (Q9UKV0 whole entry)": "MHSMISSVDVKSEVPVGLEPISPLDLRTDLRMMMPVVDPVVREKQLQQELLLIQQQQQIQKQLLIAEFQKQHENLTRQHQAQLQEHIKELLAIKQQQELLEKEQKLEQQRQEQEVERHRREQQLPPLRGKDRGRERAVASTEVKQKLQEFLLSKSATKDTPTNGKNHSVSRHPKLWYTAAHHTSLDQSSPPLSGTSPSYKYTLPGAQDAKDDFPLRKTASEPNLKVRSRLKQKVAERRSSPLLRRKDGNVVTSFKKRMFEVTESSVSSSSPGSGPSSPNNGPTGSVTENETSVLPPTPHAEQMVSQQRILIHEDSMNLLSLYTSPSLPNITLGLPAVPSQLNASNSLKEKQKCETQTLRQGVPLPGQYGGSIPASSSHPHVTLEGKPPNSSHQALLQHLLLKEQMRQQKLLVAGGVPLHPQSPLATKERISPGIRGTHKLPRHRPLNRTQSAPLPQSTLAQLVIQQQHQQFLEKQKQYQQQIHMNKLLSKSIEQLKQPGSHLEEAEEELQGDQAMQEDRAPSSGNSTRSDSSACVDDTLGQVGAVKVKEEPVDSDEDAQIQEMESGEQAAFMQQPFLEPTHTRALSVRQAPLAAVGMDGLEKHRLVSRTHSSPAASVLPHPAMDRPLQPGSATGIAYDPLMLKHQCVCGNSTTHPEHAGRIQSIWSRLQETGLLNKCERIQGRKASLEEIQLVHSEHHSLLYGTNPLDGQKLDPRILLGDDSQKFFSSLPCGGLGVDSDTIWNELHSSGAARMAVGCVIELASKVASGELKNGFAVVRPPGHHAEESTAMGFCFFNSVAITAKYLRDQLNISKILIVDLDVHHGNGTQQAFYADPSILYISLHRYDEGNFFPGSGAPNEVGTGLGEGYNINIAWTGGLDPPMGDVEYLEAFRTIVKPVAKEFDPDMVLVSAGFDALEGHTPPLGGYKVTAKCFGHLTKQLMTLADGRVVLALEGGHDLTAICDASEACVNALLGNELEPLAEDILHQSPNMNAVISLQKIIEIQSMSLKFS", "assay": "HDAC enzyme inhibition assay, HDAC9", "type": "biochemical", "conditions": "Class IIa; Reaction Biology Corp. assay", "description": "(§1) HDAC activity inhibition assays were performed by Reaction Biology Corp. (Malvern, PA, USA)."}, "[1]": {"set-up": "method as in PMID 27344487", "conditions": "in vivo HCT-116 tumor study; cited from earlier work"}, "HCT-116 tumor": {"tested_on": "HCT-116 tumor", "set-up": "method as in PMID 27344487", "conditions": "cited from earlier work"}, "HDAC4": {"target": "T2, HDAC4 (Homo sapiens, UniProt P56524)", "T2 construct": "purchased Reaction Biology Corp. (contract assay service)", "T2 sequence (P56524 whole entry)": "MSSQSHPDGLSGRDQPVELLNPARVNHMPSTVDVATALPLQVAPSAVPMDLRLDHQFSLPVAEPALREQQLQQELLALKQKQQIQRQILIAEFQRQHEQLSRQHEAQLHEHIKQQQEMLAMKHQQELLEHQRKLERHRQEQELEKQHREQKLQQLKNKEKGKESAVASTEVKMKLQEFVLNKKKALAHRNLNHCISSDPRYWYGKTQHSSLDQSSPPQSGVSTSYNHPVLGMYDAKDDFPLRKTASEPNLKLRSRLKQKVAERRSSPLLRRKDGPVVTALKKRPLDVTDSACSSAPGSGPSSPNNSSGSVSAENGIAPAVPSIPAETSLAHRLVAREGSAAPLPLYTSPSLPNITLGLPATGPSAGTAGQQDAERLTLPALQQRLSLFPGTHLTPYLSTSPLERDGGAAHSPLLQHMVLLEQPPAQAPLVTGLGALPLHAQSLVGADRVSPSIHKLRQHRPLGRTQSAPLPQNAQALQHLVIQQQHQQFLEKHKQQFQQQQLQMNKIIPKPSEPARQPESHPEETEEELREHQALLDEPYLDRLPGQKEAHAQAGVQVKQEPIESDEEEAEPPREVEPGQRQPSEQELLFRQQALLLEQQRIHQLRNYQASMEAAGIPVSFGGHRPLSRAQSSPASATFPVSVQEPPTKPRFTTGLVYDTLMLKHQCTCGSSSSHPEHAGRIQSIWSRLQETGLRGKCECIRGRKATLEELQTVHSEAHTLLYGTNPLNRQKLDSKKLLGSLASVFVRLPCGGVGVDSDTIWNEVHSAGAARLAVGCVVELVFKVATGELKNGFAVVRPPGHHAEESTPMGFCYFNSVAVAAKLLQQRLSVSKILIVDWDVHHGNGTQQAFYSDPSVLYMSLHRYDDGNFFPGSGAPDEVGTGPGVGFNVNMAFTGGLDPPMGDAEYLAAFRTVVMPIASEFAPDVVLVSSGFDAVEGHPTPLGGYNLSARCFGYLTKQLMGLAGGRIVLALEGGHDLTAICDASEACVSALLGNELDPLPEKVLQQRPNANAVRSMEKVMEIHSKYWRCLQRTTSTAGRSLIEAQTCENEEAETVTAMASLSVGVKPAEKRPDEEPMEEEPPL", "assay": "HDAC enzyme inhibition assay, HDAC4", "type": "biochemical", "conditions": "Class IIa; Reaction Biology Corp. assay", "description": "as §1"}, "HDAC1": {"tested_on": "HDAC1", "set-up": "method as in PMID 27344487", "conditions": "Class I; cited from earlier work"}, "[2]": {"tested_on": "acetyl-α-tubulin and acetyl-histone H3 in HT-29 cells", "assay": "Western blot of acetyl-α-tubulin and acetyl-histone H3, HT-29", "type": "cell-based, human", "conditions": "24 h", "description": "(§2) Figure 2 MPT0G236 induced acetylation of α-tubulin and histone H3 in human colorectal cells. (A) The structure of MPT0G236. […] Protein expression was quantified by using the computerized image analysis application in ImageJ software V1.53k. The data are shown as the mean ± SEM on the basis of at least three independent experiments. * p < 0.05, ** p < 0.01, *** p < 0.001 and **** p < 0.0001 compared with the control group.\n(§3) Cells were washed with PBS and incubated with lysis buffer (20 mM HEPES, pH 7.4; 2 mM EGTA; 0.1% Triton X-100; 50 mM β-glycerophosphate; 1 mM DTT; 10% glycerol; 1 μg/mL leupeptin; 1 mM sodium orthovanadate; 1 mM phenylmethylsulfonyl fluoride; 5 μg/mL aprotinin) for 10 min at 4 °C. The cells were then scraped off and incubated on ice for an additional 10 min before being centrifuged at 17,000× g for 30 min at 4 °C. The total protein […] was determined, and equal amounts of proteins were separated by […] on sodium dodecyl sulfate polyacrylamide gels (SDS-PAGE) and transferred onto a nitrocellulose membrane. […] Signals were detected with chemiluminescence reagents (GE Healthcare Corp., Buckinghamshire, UK), and the membranes were scanned using a ChemiDocTM MP Imaging System. Protein levels in the Western blots were then quantified using ImageJ software V1.53k."}, "HCT-116 cells": {"tested_on": "HCT-116 cells", "set-up": "method as in PMID 27344487", "conditions": "previous study, read-out: GI50 cell proliferation; cited from earlier work"}, "[3]": {"tested_on": "human umbilical vein endothelial cells (HUVECs)", "assay": "MTT cell viability assay, HUVEC", "type": "cell-based"}, "HDAC6": {"tested_on": "HDAC6", "set-up": "method as in PMID 27344487", "conditions": "Class IIb; cited from earlier work"}, "HDAC5": {"target": "T3, HDAC5 (Homo sapiens, UniProt Q9UQL6)", "T3 construct": "purchased Reaction Biology Corp. (contract assay service)", "T3 sequence (Q9UQL6 whole entry)": "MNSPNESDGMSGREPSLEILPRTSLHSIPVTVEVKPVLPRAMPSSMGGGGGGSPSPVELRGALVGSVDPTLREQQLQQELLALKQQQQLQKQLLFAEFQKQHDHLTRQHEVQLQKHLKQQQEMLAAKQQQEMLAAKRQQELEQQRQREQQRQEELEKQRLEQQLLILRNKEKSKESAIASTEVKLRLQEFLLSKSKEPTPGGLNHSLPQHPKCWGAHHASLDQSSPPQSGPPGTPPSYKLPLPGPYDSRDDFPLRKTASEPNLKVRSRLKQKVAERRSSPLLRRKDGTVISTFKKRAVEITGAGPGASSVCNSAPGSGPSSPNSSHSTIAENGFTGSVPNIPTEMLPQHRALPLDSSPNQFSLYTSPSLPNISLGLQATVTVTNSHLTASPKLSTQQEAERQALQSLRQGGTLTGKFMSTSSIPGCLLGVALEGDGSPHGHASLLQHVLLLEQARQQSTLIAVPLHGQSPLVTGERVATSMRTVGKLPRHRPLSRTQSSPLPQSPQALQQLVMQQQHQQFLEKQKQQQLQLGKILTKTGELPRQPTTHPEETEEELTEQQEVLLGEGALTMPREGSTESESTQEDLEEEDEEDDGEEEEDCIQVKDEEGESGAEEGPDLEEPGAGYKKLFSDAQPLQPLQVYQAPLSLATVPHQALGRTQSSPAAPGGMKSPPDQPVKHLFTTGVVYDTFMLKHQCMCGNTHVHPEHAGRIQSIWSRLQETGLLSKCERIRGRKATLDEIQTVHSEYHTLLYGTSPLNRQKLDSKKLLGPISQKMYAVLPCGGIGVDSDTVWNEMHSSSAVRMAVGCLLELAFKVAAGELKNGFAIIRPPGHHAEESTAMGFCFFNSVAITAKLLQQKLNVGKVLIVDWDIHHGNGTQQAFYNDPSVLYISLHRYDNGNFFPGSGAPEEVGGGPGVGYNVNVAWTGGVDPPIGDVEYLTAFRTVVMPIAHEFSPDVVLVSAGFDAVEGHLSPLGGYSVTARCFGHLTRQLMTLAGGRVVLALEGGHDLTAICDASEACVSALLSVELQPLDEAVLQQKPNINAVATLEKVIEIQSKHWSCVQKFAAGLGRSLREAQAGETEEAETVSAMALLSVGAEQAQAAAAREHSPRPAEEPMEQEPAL", "assay": "HDAC enzyme inhibition assay, HDAC5", "type": "biochemical", "conditions": "Class IIa; Reaction Biology Corp. assay", "description": "as §1"}, "[4]": {"tested_on": "HCT-116 human colorectal cancer cells", "assay": "SRB cell proliferation (growth) assay, HCT-116", "type": "cell-based", "conditions": "read-out: GI50 cell growth", "description": "(§4) The impacts of MPT0G236 on cell viability (A,C) and cell growth (B) were evaluated with HCT-116 and HT-29 human colorectal cancer cells, as well as human umbilical vein endothelial cells (HUVECs). The cells were treated with different concentrations of the compound for 48 h. Cell viability was measured using an MTT assay, while cell growth was assessed using an SRB assay. The data are shown as the mean ± SEM on the basis of three independent experiments. […] The basal cells were fixed with 10% (w/v) trichloroacetic acid for 10 min. […] After treatment, the cells were fixed with 10% TCA, stained with SRB at a concentration of 0.4% (w/v), and washed with 1% acetic acid. After drying, the stained cells were lysed with 10 mM Trizma base, and the absorbance was measured at a wavelength of 515 nm."}, "HDAC7": {"target": "T4, HDAC7 (Homo sapiens, UniProt Q8WUI4)", "T4 construct": "purchased Reaction Biology Corp. (contract assay service)", "T4 sequence (Q8WUI4 1-952)": "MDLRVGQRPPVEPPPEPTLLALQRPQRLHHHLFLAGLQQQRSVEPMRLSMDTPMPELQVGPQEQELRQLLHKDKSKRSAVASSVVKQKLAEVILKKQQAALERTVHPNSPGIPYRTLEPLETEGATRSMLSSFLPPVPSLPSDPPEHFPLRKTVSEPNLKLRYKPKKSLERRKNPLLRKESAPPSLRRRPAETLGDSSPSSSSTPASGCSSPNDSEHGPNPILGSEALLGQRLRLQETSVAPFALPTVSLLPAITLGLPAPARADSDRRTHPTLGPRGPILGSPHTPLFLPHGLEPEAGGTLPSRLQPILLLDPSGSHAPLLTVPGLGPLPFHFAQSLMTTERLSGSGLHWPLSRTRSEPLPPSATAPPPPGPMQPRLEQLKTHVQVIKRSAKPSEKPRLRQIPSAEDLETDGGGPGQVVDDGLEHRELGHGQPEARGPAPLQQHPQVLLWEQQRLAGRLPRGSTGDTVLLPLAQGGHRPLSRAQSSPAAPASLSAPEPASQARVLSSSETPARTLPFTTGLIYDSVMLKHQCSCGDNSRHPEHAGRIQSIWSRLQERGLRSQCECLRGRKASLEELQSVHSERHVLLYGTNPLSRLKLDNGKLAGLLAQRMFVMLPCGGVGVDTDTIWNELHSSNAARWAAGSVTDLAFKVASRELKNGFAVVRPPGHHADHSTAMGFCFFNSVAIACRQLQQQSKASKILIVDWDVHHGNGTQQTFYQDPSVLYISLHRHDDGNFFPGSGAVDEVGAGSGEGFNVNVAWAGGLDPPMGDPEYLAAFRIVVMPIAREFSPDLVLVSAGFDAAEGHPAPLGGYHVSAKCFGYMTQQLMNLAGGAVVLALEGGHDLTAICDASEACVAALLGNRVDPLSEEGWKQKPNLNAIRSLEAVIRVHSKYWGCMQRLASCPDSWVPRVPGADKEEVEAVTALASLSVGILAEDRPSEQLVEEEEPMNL", "assay": "HDAC enzyme inhibition assay, HDAC7", "type": "biochemical", "conditions": "Class IIa; Reaction Biology Corp. assay", "description": "as §1"}, "HDAC2": {"tested_on": "HDAC2", "set-up": "method as in PMID 27344487", "conditions": "Class I; cited from earlier work"}, "HDAC3": {"target": "T5, HDAC3 (Homo sapiens, UniProt O15379)", "T5 construct": "purchased Reaction Biology Corp. (contract assay service)", "T5 sequence (O15379 whole entry)": "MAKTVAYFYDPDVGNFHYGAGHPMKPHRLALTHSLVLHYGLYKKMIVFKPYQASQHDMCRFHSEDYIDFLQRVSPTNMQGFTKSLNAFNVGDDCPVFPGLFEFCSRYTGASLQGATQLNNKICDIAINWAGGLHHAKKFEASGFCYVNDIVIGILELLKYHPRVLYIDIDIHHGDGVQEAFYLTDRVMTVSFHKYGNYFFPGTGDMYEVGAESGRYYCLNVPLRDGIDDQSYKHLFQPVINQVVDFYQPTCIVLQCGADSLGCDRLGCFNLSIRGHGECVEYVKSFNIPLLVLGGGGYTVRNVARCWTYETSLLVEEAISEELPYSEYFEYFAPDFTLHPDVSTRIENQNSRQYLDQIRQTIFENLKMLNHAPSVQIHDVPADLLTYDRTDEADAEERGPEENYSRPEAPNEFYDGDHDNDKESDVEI", "T5 sequence (Q9Y618 395-489 partner limits assumed)": "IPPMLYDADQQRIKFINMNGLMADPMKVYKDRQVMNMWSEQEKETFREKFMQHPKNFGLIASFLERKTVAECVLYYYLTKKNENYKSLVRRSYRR", "assay": "HDAC enzyme inhibition assay, HDAC3", "type": "biochemical", "conditions": "Class I; Reaction Biology Corp. assay", "description": "as §1"}, "[5]": {"tested_on": "HT-29 human colorectal cancer cells", "assay": "MTT cell viability assay, HT-29", "type": "cell-based", "conditions": "read-out: IC50 cell viability"}, "[6]": {"tested_on": "HT-29 human colorectal cancer cells", "assay": "SRB cell proliferation (growth) assay, HT-29", "type": "cell-based", "conditions": "read-out: GI50 cell growth", "description": "as §4"}, "[7]": {"tested_on": "acetyl-α-tubulin and acetyl-histone H3 in HCT-116 cells", "assay": "Western blot of acetyl-α-tubulin and acetyl-histone H3, HCT-116", "type": "cell-based, human", "conditions": "24 h", "description": "as §2, §3"}, "[8]": {"tested_on": "HCT-116 human colorectal cancer cells", "assay": "MTT cell viability assay, HCT-116", "type": "cell-based", "conditions": "48 h"}, "PC-3 cells": {"tested_on": "PC-3 cells", "set-up": "method as in PMID 27344487", "conditions": "previous study, read-out: GI50 cell proliferation; cited from earlier work"}, "HDAC8": {"tested_on": "HDAC8", "conditions": "Class I; cited from earlier work"}, "A549 cells": {"tested_on": "A549 cells", "set-up": "method as in PMID 27344487", "conditions": "previous study, read-out: GI50 cell proliferation; cited from earlier work"}}, "note": "Like-named read-outs stand apart in the source and are kept apart here.", "data": [{"smiles": "O=C(/C=C/c1cccc(S(=O)(=O)c2ccc3ccccc3n2)c1)NO", "note": "[MPT0G236]", "values": [{"measurement": "IC50", "setting": "HDAC9", "result": 12600, "unit": "nM"}, {"measurement": "effect on body weight", "setting": "[1]", "result": "without affecting body weight"}, {"measurement": "HCT-116 tumor growth suppression", "setting": "HCT-116 tumor; oral administration of 50 mg/kg", "result": 32.2, "unit": "%"}, {"measurement": "HCT-116 tumor growth suppression", "setting": "HCT-116 tumor; oral administration of 100 mg/kg", "result": 58.8, "unit": "%"}, {"measurement": "IC50", "setting": "HDAC4", "result": 19700, "unit": "nM"}, {"measurement": "IC50", "setting": "HDAC1", "result": 14, "unit": "nM"}, {"measurement": "concentration that significantly elevated acetyl-α-tubulin", "setting": "[2]", "result": 3, "unit": "µM"}, {"measurement": "concentration that significantly elevated histone acetylation", "setting": "[2]", "result": 1, "unit": "µM"}, {"measurement": "GI50", "setting": "HCT-116 cells", "result": "80 ± 1", "unit": "nM"}, {"measurement": "normal cells (HUVEC) less sensitive than colorectal cancer cells", "setting": "[3]; HUVEC IC50 versus HCT-116 and HT-29 IC50", "result": "more than 10 fold"}, {"measurement": "IC50", "setting": "[3]; Homo sapiens, HUVEC, 48 h", "result": 15100, "unit": "nM"}, {"measurement": "IC50", "setting": "HDAC6", "result": 15, "unit": "nM"}, {"measurement": "IC50", "setting": "HDAC5", "result": 15500, "unit": "nM"}, {"measurement": "GI50", "setting": "[4]; HCT-116, SRB, 48 h", "result": 100, "unit": "nM"}, {"measurement": "IC50", "setting": "HDAC7", "result": 12300, "unit": "nM"}, {"measurement": "IC50", "setting": "HDAC2", "result": 11.5, "unit": "nM"}, {"measurement": "IC50", "setting": "HDAC3", "result": 70, "unit": "nM"}, {"measurement": "IC50", "setting": "[5]; HT-29, MTT, 48 h", "result": 880, "unit": "nM"}, {"measurement": "GI50", "setting": "[6]; HT-29, SRB, 48 h", "result": 310, "unit": "nM"}, {"measurement": "concentration that significantly increased accumulation of acetyl-α-tubulin", "setting": "[7]", "result": 0.3, "unit": "µM"}, {"measurement": "concentration that significantly increased histone acetylation", "setting": "[7]", "result": 1, "unit": "µM"}, {"measurement": "IC50", "setting": "[8]", "result": 350, "unit": "nM"}, {"measurement": "GI50", "setting": "PC-3 cells", "result": "150 ± 10", "unit": "nM"}, {"measurement": "IC50", "setting": "HDAC8", "result": 130, "unit": "nM"}, {"measurement": "GI50", "setting": "A549 cells", "result": "270 ± 20", "unit": "nM"}]}, {"smiles": "O=C(CCCCCCC(=O)Nc1ccccc1)NO", "note": "[SAHA, Suberoylanilide hydroxamic acid, reference compound]", "values": [{"measurement": "GI50", "setting": "[4]; HCT-116, 48 h", "result": 630, "unit": "nM"}, {"measurement": "IC50", "setting": "[5]; HT-29, 48 h", "result": 2310, "unit": "nM"}, {"measurement": "GI50", "setting": "[6]; HT-29, 48 h", "result": 470, "unit": "nM"}]}]}
